According to patent publication US9242937B2, “Pharmaceutically active disubstituted pyridine derivatives” (Bayer Intellectual Property GmbH, priority 2011, dated 2016):

Key:
CDK2/CyclinA = molecular target: T1, CDK2/CyclinA (Homo sapiens, UniProt P24941); assay: Lance Ultra KinaSelect Assay, CDK2; format: biochemical; details: ULight MBP substrate, ATP 3 μM; read-out: CDK2 LANCE assay (activity range), IC50
T1 construct: purchased Proqinase
Method: This protocol describes how the Lance Ultra KinaSelect Assay was performed to determine half maximal inhibitory concentration (IC50) of compounds of general formula (I) and CDK/Cyclin complexes. The principle behind this enzymatic assay is based upon the phosphorylation of the ULight-Peptide Substrat. It is detected by using a specific EU-labeled anti-phospho peptide antibody. The binding of the Eu-labeled anti-phospho peptide antibody to the phosphorylated ULight labeled peptide gives rise to a FRET-signal. Binding of an inhibitor to the kinase prevents phosphorylation of the ULight-MBP Substrat, resulting in a loss of FRET.
The compounds of general formula (I) summarized in Table 5 were diluted from a 10 mM DMSO stock solution 1:10 in a total volume of 15 μL DMSO. This compound predilution was then serial diluted 1:3 over 8 steps in DMSO and briefly spun down. Each compound solution was now diluted 1:20 in Enzymatic Buffer (HEPES: 50 mM, pH: 7.5; MgCl2: 10 mM; EGTA: 1 mM; DTT: 2 mM; Tween-20: 0.01%), mixed thoroughly and spun down. For every sample, 2 μL of the diluted compound were mixed with 6 μL CDK/Cyclin/Substrat solution and 2 μL ATP solution in a well of a small volume 384 well plate (Corning Incorporated, Corning, N.Y., USA; order no. 3673). The CDK/Cyclin was diluted to the appropriate concentration (see Table 3) and the ATP concentration was adjusted to its […] for the CDK/Cyclin, which was 3 μM for CDK2/Cyclin A, 20 μM for CDK1/Cyclin B1, 25 μM for CDK7/Cyclin H and CDK9/Cyclin T1, 55 μM for CDK6/Cyclin D3, 90 μM for CDK4/Cyclin D1 and 125 μM for CDK9/Cyclin K. For negative controls, in each well 2 μL of DMSO solution (1% final DMSO assay concentration) was mixed with 6 μL substrate solution (50 nM ULight MBP final assay concentration) and 2 μL ATP solution (appropriate final concentration see Table 3). For positive controls, in each well 2 μL of DMSO solution (1% final DMSO assay concentration) was mixed with 6 μL CDK/Cyclin/Substrat (appropriate final concentration see Table 3) and 2 μL Tracer ATP solution (appropriate final concentration see Table 3). Positive and negative controls were calculated from at least 8 different sample wells. The 384 well plates were mixed in a Teleshaker plate mixer (Beckman Coulter, Brea, Calif., USA) at 2000 rpm for 40 sec, and incubated for 1 h at room temperature. Before reading, 10 μL the detection buffer (Lance Detection Buffer 1×; EDTA: […]; Eu-Anti-P-MBP: see Table 3) was added. The FRET signal was measured at 340 nm excitation, 665 nm and 615 nm emission (for the kinase tracer and LanthaScreen Eu-AB, respectively) with an Envision spectrophotometer (Perkin Elmer, Waltham, Mass., USA) with 50 μs delay and 300 μs integration time. IC50 values were determined from the sigmoidal dose response curves with the software Quattro Workflow (Quattro GmbH, Munich, Germany).

Hela cells = assay: Cell viability assay, Hela cells; format: cell-based; details: Homo sapiens, 72 h, Cell Titer Glo, read-out: Cell Viability - Hela cells (activity range), IC50
Method: Hela- or MDAMB468-Cells were maintained in RPMI 1640 or McCoy's 5A cell culture medium+glutamine (PAN Biotech GmbH, Aidenbach, Germany; order no. P04-22100; P04-05500) supplemented with 10% fetal calf serum “Gold” (PAA Laboratories GmbH, Pasching, Austria; order no. A15-151) and grown at 37° C., 5% CO2. For the cell viability assay, cells were seeded with a density of 400 (Hela cells, DSMZ Braunschweig order no. ACC57) or 800 (MDAMB468 cells, ATCC order no. HTB-132) per well in 25 μL in 384-well plates (Greiner Bio-One, Frickenhausen, Germany; order no. 781080). After overnight incubation at 37° C./5% CO2, 25 nL or 75 nL compound were added to each sample well by using BIOMEK FXP Laboratory Automation Workstation (Beckman Coulter, USA). Wells with cells and 0.1% or 0.3% DMSO in culture medium were used as positive controls, wells with cells and 10 μM staurosporine in culture medium were used as negative controls. The cells were incubated with the compounds for 72 h at 37° C./5% CO2. For measurement of cell viability 25 μL Cell Titer Glo reagent (Promega, Madison, USA; order no. G7573), 1:2 diluted with cell culture medium, was added to each well. The 384 well-plates were placed for 2 min on a orbital microplate shaker and incubated for further 10 min at room temperature to stabilize the luminescence signal. Luminescence was measured by Envision Plate Reader (Perkin Elmer, USA). IC50 values were calculated with the software Excel Fit (IDBS, Guildford, UK) from 3-fold dilution series comprising at least 8 concentrations in duplicates.

[1] = tested on: NF-kappaB reporter gene activation in HEK293 cells; assay: NF-kappaB reporter assay; format: cell-based; details: Homo sapiens, pNFkBluc reporter, 20 ng/ml TNF alpha, 5 h, read-out: NF-kappaB activation (activity range), IC50
Method: Cells were maintained in RPMI cell culture medium+glutamine (PAN Biotech GmbH, Aidenbach, Germany) supplemented with 10% fetal calf serum (PAA Laboratories GmbH, Pasching, Austria) and grown at 37° C., 5% CO2. HEK293 cells grown to 50% confluence were transfected with the Amaxa® Cell Line Nucleofector® Kit V (Lonza, Basel, Switzerland, catalog # VCA-1003). Transfections were performed according to manufacturer's optimized protocol for transfection of HEK293 cells. In brief, 2×10^5 cells were transfected with 5 μg highly purified plasmid DNA. Cells were transfected with a NF-kappa B reporter plasmid (pNFkBluc), pTALluc for control, or pMAXGFP for transfection control. After transfection, cells were taken up in 500 μL RPMI1640 cell culture medium, incubated for 1 h at 37° C., and 4.5 ml DMEM without phenol red were added per transfection. Transfected cells were seeded in 96 well plates (Greiner Bio-One, Frickenhausen, Germany, catalog #655098) with 100 μL cell suspension per well and incubated for 48 h. To each well, 100 μL DMEM with 2× concentrated compound diluted from 10 mM DMSO stocks, or 100 μL DMEM with 0.4% DMSO for control wells, was added. The compounds of general formula (I) summarized in Table 6 were used in this assay. Cells were stimulated with 20 ng/ml TNF alpha, and plates were incubated for 5 h at 37° C./5% CO2. Cell culture supernatants were removed to leave 100 μl medium per well, followed by addition of 100 μl Bright Glo luciferase assay reagent (Promega, Madison, Wis., USA, catalog # E2620), and shaking for 5 minutes in the dark. Luminescence was measured with a Victor Photospectrometer (Perkin Elmer, Waltham, Mass., USA). IC50 values were calculated with the software Excel Fit (IDBS, Guildford, UK) from 2-fold dilution series comprising at least 10 concentrations in duplicates.

| Compound | IC50 (CDK2/CyclinA) [µM] | IC50 (Hela cells) [µM] | IC50 [1] [µM] |
| --- | --- | --- | --- |
| COc1cc(F)ccc1-c1ccnc(Nc2cccc(CS(=O)(=O)N(C)C)c2)c1 [Compound G3, 1-[3-((4-(4-Fluoro-2-methoxyphenyl)pyridin-2-yl)amino)phenyl]-N,N-dimethylmethanesulfonamide] | 1 to 10 | > 10 |  |
| COc1ccccc1-c1ccnc(Nc2cccc(S(N)(=O)=O)c2)c1 [Compound D1, 3-[(4-(2-Methoxyphenyl)pyridin-2-yl)amino]benzenesulfonamide] | 0.1 to 1 | 0.1 to 1 | 0.1 to 1 |
| COc1ccccc1-c1ccnc(Nc2ccc(S(N)(=O)=O)cc2)c1 [Compound E1, 4-[(4-(2-Methoxyphenyl)pyridin-2-yl)amino]benzenesulfonamide] | < 0.1 | > 10 | 1 to 10 |
| COc1cc(F)ccc1-c1ccnc(Nc2cccc(NS(C)(=O)=O)c2)c1 [Compound J1, N-[3-((4-(4-Fluoro-2-methoxyphenyl)pyridin-2-yl)amino)phenyl]-methanesulfonamide] | 0.1 to 1 | 1 to 10 |  |
| COc1ccccc1-c1ccnc(Nc2cccc(S(C)(=O)=O)c2)c1 [Compound F1, 4-(2-Methoxyphenyl)-N-(3-(methylsulfonyl)phenyl)pyridin-2-amine] |  | 1 to 10 | 1 to 10 |
| COc1cc(F)ccc1-c1ccnc(Nc2cccc(NC(C)=O)c2)c1 [Compound J2, N-[3-((4-(4-Fluoro-2-methoxyphenyl)pyridin-2-yl)amino)phenyl]-acetamide] | 0.1 to 1 | > 10 |  |
| CCCNS(=O)(=O)Cc1cccc(Nc2cc(-c3ccc(F)cc3OC)ccn2)c1 [Compound K1, 1-[3-((4-(4-Fluoro-2-methoxyphenyl)pyridin-2-yl)amino)phenyl]-N-propylmethanesulfonamide] | 1 to 10 | > 10 |  |
| COc1cc(F)ccc1-c1ccnc(Nc2cccc(CS(N)(=O)=O)c2)c1 [Compound G1, [3-((4-(4-Fluoro-2-methoxyphenyl)pyridin-2-yl)amino)phenyl]-methanesulfonamide] | 1 to 10 | 1 to 10 | 0.1 to 1 |
| COc1ccccc1-c1ccnc(Nc2cccc([N+](=O)[O-])c2)c1 [Compound C1, 4-(2-Methoxyphenyl)-N-(3-nitrophenyl)pyridin-2-amine] |  |  | 1 to 10 |
| COc1ccccc1-c1ccnc(Nc2ccccc2)c1 [Compound B1, 4-(2-Methoxyphenyl)-N-phenylpyridin-2-amine] |  |  | > 10 |
